“And” between values parts separate entries of the source, which are not always exact repeats. Identical values can stand only once. Numbers after ± are expanded uncertainties.
Assay: xn = mol fraction of the nth substance listed
Details: Gas, Frequency=2 MHz, Pulse-echo method

## CCC [propane] + O=C=O
298.18 K, 100010 kPa, x2 = 0.9376
  speed of sound: 1076.7 ± 1 m/s
298.18 K, 125020 kPa, x2 = 0.9376
  speed of sound: 1162.3 ± 1 m/s
298.18 K, 149960 kPa, x2 = 0.9376
  speed of sound: 1236.7 ± 1.1 m/s
298.18 K, 175000 kPa, x2 = 0.9376
  speed of sound: 1302.7 ± 1.1 m/s
298.18 K, 200100 kPa, x2 = 0.9376
  speed of sound: 1364.5 ± 1.2 m/s
323.09 K, 24930 kPa, x2 = 0.9683
  speed of sound: 534.6 ± 1 m/s
323.09 K, 24940 kPa, x2 = 0.9683
  speed of sound: 534.8 ± 1 m/s
323.09 K, 50140 kPa, x2 = 0.9683
  speed of sound: 752.6 ± 1 m/s
323.09 K, 75000 kPa, x2 = 0.9683
  speed of sound: 890.2 ± 0.9 m/s
323.09 K, 75070 kPa, x2 = 0.9683
  speed of sound: 897.6 ± 0.9 m/s
323.09 K, 100590 kPa, x2 = 0.9683
  speed of sound: 1000.1 ± 0.9 m/s
323.09 K, 125560 kPa, x2 = 0.9683
  speed of sound: 1088.7 ± 1 m/s
323.09 K, 149970 kPa, x2 = 0.9683
  speed of sound: 1164.3 ± 1 m/s
323.09 K, 175330 kPa, x2 = 0.9683
  speed of sound: 1234.8 ± 1.1 m/s
323.09 K, 200000 kPa, x2 = 0.9683
  speed of sound: 1296.5 ± 1.1 m/s
323.1 K, 30220 kPa, x2 = 0.9907
  speed of sound: 590.1 ± 1 m/s
323.1 K, 30230 kPa, x2 = 0.9907
  speed of sound: 589.8 ± 1 m/s
323.1 K, 49980 kPa, x2 = 0.9907
  speed of sound: 747 ± 0.9 m/s
323.1 K, 75170 kPa, x2 = 0.9907
  speed of sound: 886.1 ± 0.9 m/s
323.1 K, 100210 kPa, x2 = 0.9907
  speed of sound: 992.6 ± 0.9 m/s
323.1 K, 124810 kPa, x2 = 0.9907
  speed of sound: 1080.5 ± 1 m/s
323.1 K, 149980 kPa, x2 = 0.9907
  speed of sound: 1157.2 ± 1 m/s
323.1 K, 174620 kPa, x2 = 0.9907
  speed of sound: 1224.1 ± 1.1 m/s
323.1 K, 200340 kPa, x2 = 0.9907
  speed of sound: 1288.4 ± 1.1 m/s
323.13 K, 50000 kPa, x2 = 0.9981
  speed of sound: 745.6 ± 0.9 m/s
323.13 K, 50020 kPa, x2 = 0.9981
  speed of sound: 745.8 ± 0.9 m/s
323.13 K, 75120 kPa, x2 = 0.9981
  speed of sound: 883.4 ± 0.9 m/s
323.13 K, 100030 kPa, x2 = 0.9981
  speed of sound: 988.9 ± 0.9 m/s
323.13 K, 124980 kPa, x2 = 0.9981
  speed of sound: 1076.8 ± 1 m/s
323.13 K, 150000 kPa, x2 = 0.9981
  speed of sound: 1153.2 ± 1 m/s
323.13 K, 175020 kPa, x2 = 0.9981
  speed of sound: 1220.9 ± 1.1 m/s
323.13 K, 200000 kPa, x2 = 0.9981
  speed of sound: 1282.1 ± 1.1 m/s
323.19 K, 15120 kPa, x2 = 0.9376
  speed of sound: 381.2 ± 1.5 m/s
323.19 K, 15160 kPa, x2 = 0.9376
  speed of sound: 381.4 ± 1.5 m/s
323.19 K, 25000 kPa, x2 = 0.9376
  speed of sound: 541.2 ± 1.1 m/s
323.19 K, 50090 kPa, x2 = 0.9376
  speed of sound: 758.5 ± 1 m/s
323.19 K, 75070 kPa, x2 = 0.9376
  speed of sound: 897.6 ± 0.9 m/s
323.19 K, 100040 kPa, x2 = 0.9376
  speed of sound: 1005.2 ± 1 m/s
323.19 K, 125050 kPa, x2 = 0.9376
  speed of sound: 1095.7 ± 1 m/s
323.19 K, 150020 kPa, x2 = 0.9376
  speed of sound: 1173.9 ± 1 m/s
323.19 K, 175000 kPa, x2 = 0.9376
  speed of sound: 1243.4 ± 1.1 m/s
323.19 K, 200420 kPa, x2 = 0.9376
  speed of sound: 1307.5 ± 1.1 m/s
348.09 K, 30390 kPa, x2 = 0.9683
  speed of sound: 504.8 ± 1 m/s
348.09 K, 30400 kPa, x2 = 0.9683
  speed of sound: 504.8 ± 1 m/s
348.09 K, 49950 kPa, x2 = 0.9981
  speed of sound: 667.1 ± 0.8 m/s and 667.2 ± 0.8 m/s
348.09 K, 50030 kPa, x2 = 0.9683
  speed of sound: 675.2 ± 0.9 m/s
348.09 K, 50360 kPa, x2 = 0.9907
  speed of sound: 672.7 ± 0.8 m/s
348.09 K, 50370 kPa, x2 = 0.9907
  speed of sound: 672.7 ± 0.8 m/s
348.09 K, 75020 kPa, x2 = 0.9981
  speed of sound: 813.6 ± 0.9 m/s
348.09 K, 75080 kPa, x2 = 0.9907
  speed of sound: 816.9 ± 0.9 m/s
348.09 K, 75220 kPa, x2 = 0.9683
  speed of sound: 823 ± 0.9 m/s
348.09 K, 99980 kPa, x2 = 0.9981
  speed of sound: 924.6 ± 0.9 m/s
348.09 K, 100580 kPa, x2 = 0.9907
  speed of sound: 931.1 ± 0.9 m/s
348.09 K, 100600 kPa, x2 = 0.9683
  speed of sound: 937.3 ± 0.9 m/s
348.09 K, 124980 kPa, x2 = 0.9981
  speed of sound: 1016.6 ± 0.9 m/s
348.09 K, 125530 kPa, x2 = 0.9683
  speed of sound: 1029 ± 0.9 m/s
348.09 K, 125700 kPa, x2 = 0.9907
  speed of sound: 1023.2 ± 0.9 m/s
348.09 K, 149990 kPa, x2 = 0.9981
  speed of sound: 1095.6 ± 1 m/s
348.09 K, 150440 kPa, x2 = 0.9683
  speed of sound: 1109.4 ± 1 m/s
348.09 K, 150600 kPa, x2 = 0.9907
  speed of sound: 1101.4 ± 1 m/s
348.09 K, 174720 kPa, x2 = 0.9683
  speed of sound: 1178.6 ± 1 m/s
348.09 K, 175000 kPa, x2 = 0.9981
  speed of sound: 1165.6 ± 1 m/s
348.09 K, 175290 kPa, x2 = 0.9907
  speed of sound: 1171.4 ± 1 m/s
348.09 K, 200000 kPa, x2 = 0.9981
  speed of sound: 1228.6 ± 1.1 m/s
348.09 K, 200040 kPa, x2 = 0.9683
  speed of sound: 1243.8 ± 1.1 m/s
348.09 K, 200720 kPa, x2 = 0.9907
  speed of sound: 1236.7 ± 1.1 m/s
348.18 K, 25040 kPa, x2 = 0.9376
  speed of sound: 446.6 ± 1 m/s
348.18 K, 25050 kPa, x2 = 0.9376
  speed of sound: 446.8 ± 1 m/s
348.18 K, 50050 kPa, x2 = 0.9376
  speed of sound: 682.3 ± 1 m/s
348.18 K, 75100 kPa, x2 = 0.9376
  speed of sound: 830.6 ± 0.9 m/s
348.18 K, 100100 kPa, x2 = 0.9376
  speed of sound: 943.7 ± 0.9 m/s
348.18 K, 125020 kPa, x2 = 0.9376
  speed of sound: 1037.1 ± 1 m/s
348.18 K, 149940 kPa, x2 = 0.9376
  speed of sound: 1117.7 ± 1 m/s
348.18 K, 174970 kPa, x2 = 0.9376
  speed of sound: 1189.8 ± 1 m/s
348.18 K, 200000 kPa, x2 = 0.9376
  speed of sound: 1254.3 ± 1.1 m/s
373.1 K, 74950 kPa, x2 = 0.9981
  speed of sound: 754.4 ± 0.8 m/s
373.1 K, 74970 kPa, x2 = 0.9981
  speed of sound: 754.7 ± 0.8 m/s
373.1 K, 100020 kPa, x2 = 0.9981
  speed of sound: 869.7 ± 0.9 m/s
373.1 K, 125030 kPa, x2 = 0.9981
  speed of sound: 963.9 ± 0.9 m/s
373.1 K, 150000 kPa, x2 = 0.9981
  speed of sound: 1044.4 ± 0.9 m/s
373.1 K, 175000 kPa, x2 = 0.9981
  speed of sound: 1115.5 ± 1 m/s
373.1 K, 200000 kPa, x2 = 0.9981
  speed of sound: 1179.3 ± 1 m/s
373.12 K, 25050 kPa, x2 = 0.9376
  speed of sound: 384.7 ± 1 m/s
373.12 K, 25060 kPa, x2 = 0.9376
  speed of sound: 385 ± 1 m/s
373.12 K, 35140 kPa, x2 = 0.9683
  speed of sound: 488.3 ± 1 m/s
373.12 K, 35170 kPa, x2 = 0.9683
  speed of sound: 488.8 ± 1 m/s
373.12 K, 49890 kPa, x2 = 0.9376
  speed of sound: 618.8 ± 1 m/s
373.12 K, 49950 kPa, x2 = 0.9683
  speed of sound: 611.6 ± 0.9 m/s
373.12 K, 75070 kPa, x2 = 0.9683
  speed of sound: 764.5 ± 0.9 m/s
373.12 K, 75090 kPa, x2 = 0.9376
  speed of sound: 772.6 ± 0.9 m/s
373.12 K, 100000 kPa, x2 = 0.9376
  speed of sound: 889.4 ± 0.9 m/s
373.12 K, 100300 kPa, x2 = 0.9683
  speed of sound: 881.3 ± 0.9 m/s
373.12 K, 124970 kPa, x2 = 0.9376
  speed of sound: 985.6 ± 0.9 m/s
373.12 K, 125160 kPa, x2 = 0.9683
  speed of sound: 976.5 ± 0.9 m/s
373.12 K, 149930 kPa, x2 = 0.9376
  speed of sound: 1069 ± 1 m/s
373.12 K, 150000 kPa, x2 = 0.9683
  speed of sound: 1057.9 ± 1 m/s
373.12 K, 174970 kPa, x2 = 0.9376
  speed of sound: 1141.6 ± 1 m/s
373.12 K, 175220 kPa, x2 = 0.9683
  speed of sound: 1131.5 ± 1 m/s
373.12 K, 200010 kPa, x2 = 0.9683
  speed of sound: 1196.4 ± 1 m/s
373.12 K, 200030 kPa, x2 = 0.9376
  speed of sound: 1208.7 ± 1.1 m/s
373.13 K, 50050 kPa, x2 = 0.9907
  speed of sound: 607.3 ± 0.8 m/s
373.13 K, 50070 kPa, x2 = 0.9907
  speed of sound: 607.5 ± 0.8 m/s
373.13 K, 76000 kPa, x2 = 0.9907
  speed of sound: 763.8 ± 0.9 m/s
373.13 K, 100270 kPa, x2 = 0.9907
  speed of sound: 874.4 ± 0.9 m/s
373.13 K, 125410 kPa, x2 = 0.9907
  speed of sound: 970.3 ± 0.9 m/s
373.13 K, 150430 kPa, x2 = 0.9907
  speed of sound: 1051.5 ± 1 m/s
373.13 K, 174660 kPa, x2 = 0.9907
  speed of sound: 1121.2 ± 1 m/s
373.13 K, 200020 kPa, x2 = 0.9907
  speed of sound: 1188.3 ± 1 m/s

— the NIST ThermoML archive (doi:10.1021/je5007407)
